Test results from patent US20150297782A1, “NITRIC OXIDE-RELEASING DRESSINGS” (priority 2008, published 2015).

Legend:
[1] = Effect of varying oxygen concentrations on efficacy of 1000 ppm NO exposure; type: cell-based
Excerpt: Prior art devices for delivering NO to treat wounds have required a closed environment. […] The oxygen may be environmental oxygen or may be delivered via an oxygen generating component within the dressing or apparatus.
The effect of various oxygen concentration levels on the efficacy of 1000 ppm treatment of NO was studied.

bacterial burden = conditions: "It has been shown", no test described; cited from earlier work
[2] = humans, delivery to an infection site; cited from earlier work

## [N]=O [NO, Nitric oxide]
[1]; 0% Oxygen, 2 hour
  CFU/mL: 100,000 CFU/mL
[1]; 0% Oxygen, 4 hour
  CFU/mL: 100,000 CFU/mL
[1]; 14.5% Oxygen, 2 hour
  CFU/mL: 2730 CFU/mL
[1]; 14.5% Oxygen, 3 hour
  CFU/mL: 78 CFU/mL
[1]; 14.5% Oxygen, 4 hour
  CFU/mL: 0 CFU/mL
[1]; 21% Oxygen, 1 hour
  CFU/mL: 100,000 CFU/mL
[1]; 21% Oxygen, 2 hour
  CFU/mL: 10,000 CFU/mL
[1]; 21% Oxygen, 3 hour
  CFU/mL: 0 CFU/mL
[1]; 21% Oxygen, 4 hour
  CFU/mL: 0 CFU/mL
Bacterial burden
  reduction of the bacterial burden: 5-6 log10 cfu/mL
[2]
  side-effects: does not have significant side-effects
